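Growth conditions: 96-well plates. Treatment: test compound, 48 hours, 5 concentrations. Analysis: linear interpolation between bracketing concentrations; unreached endpoints set to highest concentration. At the TGI there is no net growth.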
Legend:
Experiment in all cases: NCI-60 cell line screen, 48 h
HOP-92 NSCLC = system: HOP-92 NSCLC
786-0 renal = system: 786-0 renal
CCRF-CEM leukemia = system: CCRF-CEM leukemia
MDA-N = system: MDA-N
HL-60(TB) leukemia = system: HL-60(TB) leukemia

In the case of `Cc1c2c(cc3c1C(=O)C(=O)C([C@@H](C)CO)=C3O)C(C)(C)CCC2`, the TGI (HOP-92 NSCLC) is reported as over 100 µM, the TGI (786-0 renal) is reported as over 100 µM and the TGI (CCRF-CEM leukemia) is reported as 40.7 µM. It also gave a TGI (MDA-N) of over 100 µM.

`Cc1ccc(S(=O)(=O)NC(=O)NCc2ccc(S(N)(=O)=O)cc2)cc1` gave a TGI (HOP-92 NSCLC) of over 100 µM, a TGI (786-0 renal) of over 100 µM and a TGI (HL-60(TB) leukemia) of over 100 µM.

`CC(=O)OCC(OC(C)=O)C1C[C@H]2O[C@@H]3[C@H](C[C@H]2O1)O[C@@]1(C[C@@H]3C)C[C@H](C)[C@@H]2O[C@]3(C[C@@H]2O1)C[C@H]1O[C@H]2[C@H](C)[C@H]4OC(=O)C[C@H]5CC[C@@H]6OC7[C@H]8O[C@]9(CC[C@H]%10CC(=O)[C@H](CC[C@H]%11C[C@@H](C)C(=O)C(C[C@@H]4O[C@H]2C[C@H]1O3)O%11)O%10)CC8O[C@@H]7[C@@H](O9)[C@H]6O5` (stereo not given in full) gave a TGI (HOP-92 NSCLC) of over 1 µM, a TGI (786-0 renal) of over 1 µM and a TGI (HL-60(TB) leukemia) of over 1 µM. It also gave a TGI (CCRF-CEM leukemia) of over 1 µM.

In the case of `CN(C)CCn1c(=O)c2ccc(NCCNCCO)c3c(=O)c4ccccc4n(c1=O)c23`, the TGI (HOP-92 NSCLC) is reported as 0.604 µM, the TGI (786-0 renal) is reported as 4.16 µM and the TGI (HL-60(TB) leukemia) is reported as 0.0197 µM. The TGI (MDA-N) was 1.78 µM.

For `CCOC(=O)C1(CO)CSCCSC1`, the TGI (HOP-92 NSCLC) was over 100 µM, the TGI (CCRF-CEM leukemia) was over 100 µM and the TGI (MDA-N) was over 100 µM.

Work on `O=C1C2=Cc3ccccc3CCN2c2ccccc21` yielded a TGI (HOP-92 NSCLC) of over 92.3 µM, a TGI (786-0 renal) of over 31.6 µM and a TGI (HL-60(TB) leukemia) of 72.4 µM. For the same compound, the TGI (CCRF-CEM leukemia) was 26.1 µM.

With `COc1cc2c(cc1OCCCNC(=O)c1cc3ccccc3[nH]1)N=C[C@@H]1CCCN1C2=O` the TGI (HOP-92 NSCLC) was over 100 µM, the TGI (786-0 renal) was 41.4 µM and the TGI (CCRF-CEM leukemia) was over 100 µM. For the same compound, the TGI (MDA-N) was 1.87 µM.

`O=C(/C=C/c1cccc([N+](=O)[O-])c1)N1CCN(CCOC(c2ccccc2)c2ccccc2)CC1` was tested, and the TGI (HOP-92 NSCLC) was 55.7 µM, the TGI (786-0 renal) was over 100 µM and the TGI (CCRF-CEM leukemia) was 65.4 µM. For the same compound, the TGI (MDA-N) was over 100 µM.

With `CC1=CC[C@H](C[C@H](C#CCCCC2OCCO2)O[Si](C(C)C)(C(C)C)C(C)C)C(=O)CC1` the TGI (HOP-92 NSCLC) was over 100 µM, the TGI (786-0 renal) was over 100 µM and the TGI (CCRF-CEM leukemia) was over 100 µM. For the same compound, the TGI (MDA-N) was over 100 µM.

`CN(CCC(=O)N1CC(CCl)c2ccc([N+](=O)[O-])cc21)CCC(=O)N1CC(CCl)c2ccc([N+](=O)[O-])cc21` (stereo not given) showed a TGI (786-0 renal) of 25 µM, a TGI (CCRF-CEM leukemia) of over 100 µM and a TGI (MDA-N) of 30.9 µM.

In the case of `C/C(Cl)=N/OC(=O)Nc1ccc(F)c([N+](=O)[O-])c1`, the TGI (HOP-92 NSCLC) is reported as over 72.5 µM, the TGI (786-0 renal) is reported as 16.5 µM and the TGI (HL-60(TB) leukemia) is reported as 6.02 µM. For the same compound, the TGI (MDA-N) was 35.1 µM.

With `O=C1Cc2c([nH]c3ccc(Br)cc23)-c2cc(Br)ccc2N1` the TGI (HOP-92 NSCLC) was over 100 µM, the TGI (786-0 renal) was over 100 µM and the TGI (CCRF-CEM leukemia) was over 100 µM.

For `CC[C@]12C=CCN3CC[C@@]4(c5cc(Br)c(OC)c([N+](=O)[O-])c5N(C)[C@H]4[C@@](O)(C(=O)OC)[C@@H]1OC(C)=O)[C@@H]32`, the TGI (786-0 renal) was over 100 µM, the TGI (HL-60(TB) leukemia) was over 100 µM and the TGI (CCRF-CEM leukemia) was over 100 µM. The TGI (MDA-N) was over 100 µM.

Work on `[O-][n+]1nc(N2CCOCC2)nc2ccccc21` yielded a TGI (786-0 renal) of over 100 µM, a TGI (HL-60(TB) leukemia) of over 100 µM and a TGI (CCRF-CEM leukemia) of over 100 µM. The TGI (MDA-N) was over 100 µM.

In the case of `COc1ccc(NC(=S)Nc2cc(C)ccn2)cc1`, the TGI (HOP-92 NSCLC) is reported as over 100 µM, the TGI (786-0 renal) is reported as over 100 µM and the TGI (HL-60(TB) leukemia) is reported as over 100 µM. For the same compound, the TGI (CCRF-CEM leukemia) was over 100 µM.

`Cc1cccc(N/C(=C(/C(Cl)=C(Cl)Cl)[N+](=O)[O-])n2nnc3ccccc32)c1` showed a TGI (786-0 renal) of 35.7 µM, a TGI (CCRF-CEM leukemia) of over 100 µM and a TGI (MDA-N) of 64.9 µM.

Work on `Cc1nc(N)c(N2CCN(S(N)(=O)=O)CC2)c(=O)[nH]1` yielded a TGI (786-0 renal) of over 100 µM, a TGI (HL-60(TB) leukemia) of over 100 µM and a TGI (CCRF-CEM leukemia) of over 100 µM.

In the case of `Cc1cn(C2OC(CO[Si](C)(C)C(C)(C)C)/C(=C\C#N)C2O[Si](C)(C)C(C)(C)C)c(=O)[nH]c1=O` (stereo not given), the TGI (HOP-92 NSCLC) is reported as over 100 µM, the TGI (786-0 renal) is reported as over 100 µM and the TGI (CCRF-CEM leukemia) is reported as over 100 µM. For the same compound, the TGI (MDA-N) was over 100 µM.

Work on `COc1cc2c(/C=C3/C(=O)Nc4ccc(O)cc43)c(Cl)n(Cc3ccccc3)c2cc1C` yielded a TGI (HOP-92 NSCLC) of over 78.3 µM, a TGI (786-0 renal) of 3.28 µM and a TGI (CCRF-CEM leukemia) of over 100 µM.

For `CCSc1nnc(Sc2c3ccccc3nc3ccccc23)s1`, the TGI (HOP-92 NSCLC) was over 44.8 µM, the TGI (786-0 renal) was 7.54 µM and the TGI (CCRF-CEM leukemia) was over 100 µM. For the same compound, the TGI (MDA-N) was 25.1 µM.

`O=C(CC(O)(C(F)(F)F)C(F)(F)F)C(c1ccccc1)C(O)(C(F)(F)F)C(F)(F)F` (stereo not given) gave a TGI (HOP-92 NSCLC) of 13 µM, a TGI (786-0 renal) of over 100 µM and a TGI (CCRF-CEM leukemia) of over 100 µM. It also gave a TGI (MDA-N) of over 100 µM.

In the case of `N=c1c2ccccc2nc2oc3cc([N+](=O)[O-])ccc3n12`, the TGI (786-0 renal) is reported as 66.3 µM, the TGI (CCRF-CEM leukemia) is reported as over 100 µM and the TGI (MDA-N) is reported as over 100 µM.

Compound `O=[N+]([O-])/C(C(Cl)=C(Cl)Cl)=C1\Nc2ccc([N+](=O)[O-])cc2N1` has a TGI (HOP-92 NSCLC) of over 100 µM, a TGI (786-0 renal) of over 100 µM and a TGI (CCRF-CEM leukemia) of 56.2 µM. It also gave a TGI (MDA-N) of over 100 µM.

`Cc1ccc(-c2c(C#N)c(-c3ccccc3)n(NS(=O)(=O)c3ccc(C)cc3)c(=O)c2C#N)cc1` gave a TGI (HOP-92 NSCLC) of over 100 µM, a TGI (786-0 renal) of over 100 µM and a TGI (CCRF-CEM leukemia) of 80.3 µM. It also gave a TGI (MDA-N) of over 100 µM.

`CC(C)(C)c1cc(S(=O)(=O)O)c2oc(-c3ccccc3)cc(=O)c2c1` showed a TGI (786-0 renal) of over 100 µM, a TGI (HL-60(TB) leukemia) of over 100 µM and a TGI (CCRF-CEM leukemia) of over 100 µM. For the same compound, the TGI (MDA-N) was over 100 µM.

`C1=C(CC2=C[P+](c3ccccc3)(c3ccccc3)C=C(c3ccccc3)O2)OC(c2ccccc2)=C[P+]1(c1ccccc1)c1ccccc1` showed a TGI (786-0 renal) of 2.07 µM, a TGI (HL-60(TB) leukemia) of 0.446 µM and a TGI (CCRF-CEM leukemia) of 1.54 µM. It also gave a TGI (MDA-N) of 1.22 µM.

`OC1=C2c3ccccc3NC2Oc2cc(F)ccc21` (stereo not given) gave a TGI (HOP-92 NSCLC) of 54.1 µM, a TGI (786-0 renal) of 29.9 µM and a TGI (CCRF-CEM leukemia) of 7.21 µM. It also gave a TGI (MDA-N) of 31.4 µM.
